# According to US9133201B2, “Inhibitors of Bruton's tyrosine kinase” (Pharmacyclics, Inc., priority 2006, dated 2015):
# Experiments:
# [1] = target: Btk (Homo sapiens (Human), UniProt Q06187); experiment: Btk acellular kinase assay (TR-FRET)
# [2] = tested on: DHL-6 cells; experiment: Growth of DHL-6 cells (Alamar Blue); type: cell-based; details: 24 h or 48 h treatment
# Btk, sequence (Q06187 whole entry): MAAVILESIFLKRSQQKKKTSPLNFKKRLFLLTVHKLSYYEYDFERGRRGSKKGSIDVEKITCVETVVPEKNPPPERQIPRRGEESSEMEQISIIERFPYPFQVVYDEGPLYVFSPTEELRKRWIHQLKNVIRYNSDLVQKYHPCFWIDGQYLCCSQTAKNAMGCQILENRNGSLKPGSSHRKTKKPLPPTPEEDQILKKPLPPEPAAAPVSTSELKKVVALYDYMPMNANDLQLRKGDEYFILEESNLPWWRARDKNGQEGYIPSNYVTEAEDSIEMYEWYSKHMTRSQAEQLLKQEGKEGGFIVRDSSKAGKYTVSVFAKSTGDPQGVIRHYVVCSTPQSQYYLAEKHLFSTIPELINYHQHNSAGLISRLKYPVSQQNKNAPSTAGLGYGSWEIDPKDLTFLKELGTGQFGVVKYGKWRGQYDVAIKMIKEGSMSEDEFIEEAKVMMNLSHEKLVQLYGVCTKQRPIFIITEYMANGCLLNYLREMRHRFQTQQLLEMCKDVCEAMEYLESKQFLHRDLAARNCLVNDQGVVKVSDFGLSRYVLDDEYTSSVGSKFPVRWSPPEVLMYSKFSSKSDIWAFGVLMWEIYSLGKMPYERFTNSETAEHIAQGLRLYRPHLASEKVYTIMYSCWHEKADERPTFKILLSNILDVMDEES
fold less potent than compound 4 ([1]; Btk potency) [fold],"IC50 ([1]; read-out: Btk IC50, acellular TR-FRET kinase assay, [ATP]=Km) [nM]",Structure (SMILES),growth of DHL-6 cells [2]
28,–,"C/C=C/C(=O)N1CCCC(n2nc(-c3ccc(Oc4ccccc4)cc3)c3c(N)ncnc32)C1 (stereo not drawn) [Compound 5, (E)-1-(3-(4-amino-3-(4-phenoxyphenyl)-1H-pyrazolo[3,4-d]pyrimidin-1-yl)piperidin-1-yl)but-2-en-1-one]",–
–,2.5,"CN(C)C/C=C/C(=O)N1CCC[C@@H](n2nc(-c3ccc(Oc4ccccc4)cc3)c3c(N)ncnc32)C1 [Compound 15, (E)-1-(3-(4-amino-3-(4-phenoxyphenyl)-1H-pyrazolo[3,4-d]pyrimidin-1-yl)piperidin-1-yl)-4-(dimethylamino)but-2-en-1-one]",inhibit growth
